Results reported in patent publication US8163793B2, “Proline derivatives” (Hoffman-La Roche Inc., priority 2009, dated 2012).

Experiments:
Cathepsin S = Cathepsin S (UniProt P25774); test: Cathepsin enzyme inhibition assay (fluorogenic peptide substrate Z-Val-Val-Arg-AMC), Cathepsin S; type: biochemical, human and mouse; details: enzyme 1 nM, substrate 20 μM, pH 6.5; read-out: CatS IC50
Summary of the method: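 Human or mouse cathepsin S (1 nM) was run in 100 mM potassium phosphate pH 6.5 with 5 mM EDTA, 0.001% Triton X-100 and 5 mM DTT. The rise in AMC fluorescence from cleavage was measured, and IC50 values were calculated by standard methods and expressed in μM.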

Cat L = Cat L (UniProt P07711); test: Cathepsin enzyme inhibition assay (fluorogenic peptide substrate Z-Val-Val-Arg-AMC), Cathepsin L; type: biochemical, human and mouse; details: enzyme 1 nM, substrate 20 μM, pH 6.5; read-out: CatL IC50
Summary of the method: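 Cathepsin L at 1 nM was mixed with compound, then started with 20 μM Z-Val-Val-Arg-AMC in pH 6.5 potassium phosphate with EDTA, Triton X-100 and 5 mM DTT. AMC fluorescence (ex 360/em 465 nm) was followed over 20 min. IC50 is given in μM.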

Structure (SMILES) | IC50 (Cathepsin S) [nM] | IC50 (Cat L) [nM]
COc1ccc(S(=O)(=O)[C@@H]2C[C@@H](C(=O)NC3(C#N)CC3)N(c3cc(C)nn3C3CCC3)C2)c(Cl)c1 [Example 375, (2S,4R)-4-(2-Chloro-4-methoxy-benzenesulfonyl)-1-(2-cyclobutyl-5-methyl-2H-pyrazol-3-yl)-pyrrolidine-2-carboxylic acid (1-cyano-cyclopropyl)-amide] | 0.29 | 5370
COc1ccc(S(=O)(=O)[C@@H]2C[C@@H](C(=O)NC3(C#N)CC3)N(c3cc(C)nn3Cc3ccccc3)C2)c(Cl)c1 [Example 376, (2S,4R)-1-(2-Benzyl-5-methyl-2H-pyrazol-3-yl)-4-(2-chloro-4-methoxy-benzenesulfonyl)-pyrrolidine-2-carboxylic acid (1-cyano-cyclopropyl)-amide] | 0.657 | 1760
Cc1cc(N2C[C@H](S(=O)(=O)c3ccccc3Cl)C[C@H]2C(=O)NC2(C#N)CC2)n(Cc2ccccc2)n1 [Example 379, (2S,4R)-1-(2-Benzyl-5-methyl-2H-pyrazol-3-yl)-4-(2-chloro-benzenesulfonyl)-pyrrolidine-2-carboxylic acid (1-cyano-cyclopropyl)-amide] | 1.75 | 2710
C[C@H](Oc1ccc(S(=O)(=O)[C@@H]2C[C@@H](C(=O)NC3(C#N)CC3)N(C(=O)C3(c4ccc(Cl)nc4)CC3)C2)c(Cl)c1)C(F)(F)F [Example 381, (2S,4R)-1-[1-(6-Chloro-pyridin-3-yl)-cyclopropanecarbonyl]-4-[2-chloro-4-((S)-2,2,2-trifluoro-1-methyl-ethoxy)-benzenesulfonyl]-pyrrolidine-2-carboxylic acid (1-cyano-cyclopropyl)-amide] | 0.295 | 102
N#CC1CCN2C[C@H](S(=O)(=O)c3ccc(F)cc3Cl)C[C@@]12C(=O)NC1(C#N)CC1 (stereo partly drawn) [Example 383, (6R,7aS)-6-(2-Chloro-4-fluoro-benzenesulfonyl)-1-cyano-tetrahydro-pyrrolizine-7a-carboxylic Acid (1-cyano-cyclopropyl)-amide] | 14 | 20000
Cc1cc(N2C[C@H](S(=O)(=O)c3ccc(F)cc3Cl)C[C@H]2C(=O)NC2(C#N)CC2)n(C2CCC2)n1 [Example 385, (2S,4R)-4-(2-Chloro-4-fluoro-benzenesulfonyl)-1-(2-cyclobutyl-5-methyl-2H-pyrazol-3-yl)-pyrrolidine-2-carboxylic acid (1-cyano-cyclopropyl)-amide] | 0.54 | 6460
Cn1nc(C(C)(C)C)cc1C(=O)N1C[C@H](S(=O)(=O)c2ccc(OCC(F)(F)F)cc2Cl)C[C@H]1C(=O)NC1(C#N)CC1 [Example 386, (2S,4R)-1-(5-tert-Butyl-2-methyl-2H-pyrazole-3-carbonyl)-4-[2-chloro-4-(2,2,2-trifluoro-ethoxy)-benzenesulfonyl]-pyrrolidine-2-carboxylic acid (1-cyano-cyclopropyl)-amide] | 1.75 | 4030
COc1ccc(S(=O)(=O)[C@@H]2C[C@@H](C(=O)NC3(C#N)CC3)N(C(=O)OC(C)(C)C)C2)c(Cl)c1 [Example 387, (2S,4R)-4-(2-Chloro-4-methoxy-benzenesulfonyl)-2-(1-cyano-cyclopropylcarbamoyl)-pyrrolidine-1-carboxylic acid tert-butyl ester] | 6.7 | 52500
Cc1cc(N2C[C@H](S(=O)(=O)c3ccc(F)cc3C(F)(F)F)C[C@H]2C(=O)NC2(C#N)CC2)n(C2CCC2)n1 [Example 388, (2S,4R)-1-(2-Cyclobutyl-5-methyl-2H-pyrazol-3-yl)-4-(4-fluoro-2-trifluoromethyl-benzenesulfonyl)-pyrrolidine-2-carboxylic acid (1-cyano-cyclopropyl)-amide] | 0.48 | 35600
N#CC1(NC(=O)[C@@H]2C[C@@H](S(=O)(=O)c3ccc(OCC(F)(F)F)cc3Cl)CN2C(=O)C2(c3cccc4ccccc34)OCCO2)CC1 [Example 390, (2S,4R)-4-[2-Chloro-4-(2,2,2-trifluoro-ethoxy)-benzenesulfonyl]-1-(2-naphthalen-1-yl-[1,3]dioxolane-2-carbonyl)-pyrrolidine-2-carboxylic acid (1-cyano-cyclopropyl)-amide] | 0.83 | 120
Cc1cc(N2C[C@H](S(=O)(=O)c3ccc(OCC(F)(F)F)cc3C(F)(F)F)C[C@@H]2C(=O)NC2(C#N)CC2)n(C2CCC2)n1 [Example 392, (2R,4R)-1-(2-Cyclobutyl-5-methyl-2H-pyrazol-3-yl)-4-[4-(2,2,2-trifluoro-ethoxy)-2-trifluoromethyl-benzenesulfonyl]-pyrrolidine-2-carboxylic acid (1-cyano-cyclopropyl)-amide] | 0.91 | ≥ 25000
Cn1nc(N2C[C@H](S(=O)(=O)c3ccccc3C(F)(F)F)C[C@H]2C(=O)NC2(C#N)CC2)cc1C1CCOCC1 [Example 393, (2S,4R)-1-[1-Methyl-5-(tetrahydro-pyran-4-yl)-1H-pyrazol-3-yl]-4-(2-trifluoromethyl-benzenesulfonyl)-pyrrolidine-2-carboxylic acid (1-cyano-cyclopropyl)-amide] | 3.75 | ≥ 25000
N#CC1(NC(=O)[C@@H]2C[C@@H](S(=O)(=O)c3ccccc3C(F)(F)F)CN2c2ccc(F)c(Cl)c2)CC1 [Example 394, (2S,4R)-1-(3-Chloro-4-fluoro-phenyl)-4-(2-trifluoromethyl-benzenesulfonyl)-pyrrolidine-2-carboxylic acid (1-cyano-cyclopropyl)-amide] | 2.95 | ≥ 25000
N#CC1(NC(=O)[C@H]2C[C@H](S(=O)(=O)c3ccccc3C(F)(F)F)CN2c2ccc(F)c(Cl)c2)CC1 [Example 395, (2R,4S)-1-(3-Chloro-4-fluoro-phenyl)-4-(2-trifluoromethyl-benzenesulfonyl)-pyrrolidine-2-carboxylic acid (1-cyano-cyclopropyl)-amide] | 155 | ≥ 25000

Stronger by IC50 (Cathepsin S), values ahead:

IC50 (Cathepsin S) [nM] | IC50 (Cat L) [nM] | Structure (SMILES)
0.22 | 16700 | Cc1cc(N2C[C@H](S(=O)(=O)c3ccc(OCC(F)(F)F)cc3C(F)(F)F)C[C@H]2C(=O)NC2(C#N)CC2)n(C2CCC2)n1 [Example 391, (2S,4R)-1-(2-Cyclobutyl-5-methyl-2H-pyrazol-3-yl)-4-[4-(2,2,2-trifluoro-ethoxy)-2-trifluoromethyl-benzenesulfonyl]-pyrrolidine-2-carboxylic acid (1-cyano-cyclopropyl)-amide]
0.2 | 8060 | Cc1cc(N2C[C@H](S(=O)(=O)c3ccc(N4CCN(C)CC4)cc3C(F)(F)F)C[C@H]2C(=O)NC2(C#N)CC2)n(C2CCC2)n1 [Example 389, (2S,4R)-1-(2-Cyclobutyl-5-methyl-2H-pyrazol-3-yl)-4-[4-(4-methyl-piperazin-1-yl)-2-trifluoromethyl-benzenesulfonyl]-pyrrolidine-2-carboxylic acid (1-cyano-cyclopropyl)-amide]
0.1 | 200 | COCCOc1ccc(S(=O)(=O)[C@@H]2CC(C(=O)NC3(C#N)CC3)N(C(=O)C3(c4ccc(Cl)nc4)CC3)C2)c(Cl)c1 (stereo partly drawn) [Example 378, (R)-4-[2-Chloro-4-(2-methoxy-ethoxy)-benzenesulfonyl]-1-[1-(6-chloro-pyridin-3-yl)-cyclopropanecarbonyl]-pyrrolidine-2-carboxylic acid (1-cyano-cyclopropyl)-amide]
0.08 | 42.7 | N#CC1(NC(=O)[C@@H]2C[C@@H](S(=O)(=O)c3ccc(N4CCN5CCC[C@H]5C4)cc3Cl)CN2C(=O)C2(c3ccc(Cl)nc3)CC2)CC1 [Example 373, (2S,4R)-4-((S)-2-Chloro-4-hexahydro-pyrrolo[1,2-a]pyrazin-2-yl-benzenesulfonyl)-1-[1-(6-chloro-pyridin-3-yl)-cyclopropanecarbonyl]-pyrrolidine-2-carboxylic acid (1-cyano-cyclopropyl)-amide; Compound with Formic Acid]
0.07 | 50.3 | N#CC1(NC(=O)[C@@H]2C[C@@H](S(=O)(=O)c3ccc(N4CCN(C5CC5)CC4)cc3Cl)CN2C(=O)C2(c3ccc(Cl)nc3)CC2)CC1 [Example 374, (2S,4R)-4-[2-Chloro-4-(4-cyclopropyl-piperazin-1-yl)-benzenesulfonyl]-1-[1-(6-chloro-pyridin-3-yl)-cyclopropanecarbonyl]-pyrrolidine-2-carboxylic acid (1-cyano-cyclopropyl)-amide; Compound with Formic Acid]
0.05 | 130 | N#CC1(NC(=O)[C@@H]2C[C@@H](S(=O)(=O)c3ccc(-n4cccn4)cc3Cl)CN2C(=O)C2(c3ccc(Cl)nc3)CC2)CC1 [Example 380, (2S,4R)-4-(2-Chloro-4-pyrazol-1-yl-benzenesulfonyl)-1-[1-(6-chloro-pyridin-3-yl)-cyclopropanecarbonyl]-pyrrolidine-2-carboxylic acid (1-cyano-cyclopropyl)-amide]
0.05 | 100 | N#CC1(NC(=O)[C@@H]2C[C@@H](S(=O)(=O)c3ccc(OCC(F)(F)F)cc3Cl)CN2C(=O)C2(c3ccc4c(c3)OCO4)CC2)CC1 [Example 384, (2S,4R)-1-(1-Benzo[1,3]dioxol-5-yl-cyclopropanecarbonyl)-4-[2-chloro-4-(2,2,2-trifluoro-ethoxy)-benzenesulfonyl]-pyrrolidine-2-carboxylic acid (1-cyano-cyclopropyl)-amide]
0.04 | 68 | N#CC1(NC(=O)[C@@H]2C[C@@H](S(=O)(=O)c3ccc(-n4ccnc4)cc3Cl)CN2C(=O)C2(c3ccc(Cl)nc3)CC2)CC1 [Example 382, (2S,4R)-4-(2-Chloro-4-imidazol-1-yl-benzenesulfonyl)-1-[1-(6-chloro-pyridin-3-yl)-cyclopropanecarbonyl]-pyrrolidine-2-carboxylic acid (1-cyano-cyclopropyl)-amide]
